Results from PubChem BioAssay (NCI).
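How tested: cells in 96-well plates exposed to compound for 48 hours at five concentrations. Definition used: TGI = concentration required for complete inhibition of growth.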

What was measured:
Experiment in all cases: inhibition of tumour cell growth, NCI panel, 48 h
[1] = system: SR leukemia
[2] = system: COLO 205 colon
[3] = system: HCC-2998 colon
[4] = system: UACC-257 melanoma
[5] = system: SNB-75 CNS
[6] = system: MOLT-4 leukemia
[7] = system: HS 578T breast
[8] = system: SF-268 CNS
[9] = system: OVCAR-4 ovarian
[10] = system: MALME-3M melanoma
[11] = system: LOX IMVI melanoma
[12] = system: SK-OV-3 ovarian
[13] = system: OVCAR-3 ovarian
[14] = system: SF-539 CNS
[15] = system: CAKI-1 renal
[16] = system: OVCAR-8 ovarian
[17] = system: RXF 393 renal
[18] = system: HL-60(TB) leukemia
[19] = system: HT29 colon

## CC(C)(C)OC(=O)N(O)[C@@H]1C=C[C@H](n2cnc3c(N)ncnc32)C1
[1]
  TGI: > 100 µM
[2]
  TGI: > 100 µM
[3]
  TGI: > 100 µM
[4]
  TGI: > 100 µM
[5]
  TGI: > 100 µM
[6]
  TGI: > 100 µM
[7]
  TGI: > 100 µM
[8]
  TGI: > 100 µM
[9]
  TGI: > 100 µM
[10]
  TGI: > 100 µM
[11]
  TGI: > 100 µM
[12]
  TGI: > 100 µM
[13]
  TGI: > 100 µM
[14]
  TGI: > 100 µM
[15]
  TGI: > 100 µM
[16]
  TGI: > 100 µM
[17]
  TGI: > 100 µM

## COC(=O)[C@@H]1CN(C(=O)c2ccccc2)C(=O)N1
[1]
  TGI: > 100 µM
[18]
  TGI: > 100 µM
[4]
  TGI: > 100 µM
[5]
  TGI: > 100 µM
[6]
  TGI: > 100 µM
[7]
  TGI: > 100 µM
[8]
  TGI: > 100 µM
[9]
  TGI: > 100 µM
[10]
  TGI: > 100 µM
[11]
  TGI: > 100 µM
[13]
  TGI: > 100 µM
[19]
  TGI: > 100 µM
[14]
  TGI: > 100 µM
[16]
  TGI: > 100 µM
[17]
  TGI: > 100 µM

## O=C1/C(=C\c2ccc(Cl)cc2Cl)Sc2scc(-c3cccc([N+](=O)[O-])c3)[n+]21
[1]
  TGI: > 100 µM
[2]
  TGI: 2.56 µM
[3]
  TGI: 20.5 µM
[4]
  TGI: 18.3 µM
[5]
  TGI: > 69.8 µM
[6]
  TGI: 3.94 µM
[7]
  TGI: > 100 µM
[8]
  TGI: 57.8 µM
[9]
  TGI: 38.1 µM
[10]
  TGI: 22.9 µM
[11]
  TGI: 3.47 µM
[12]
  TGI: > 56.4 µM
[13]
  TGI: 23.4 µM
[19]
  TGI: 10.9 µM
[15]
  TGI: 8.21 µM
[16]
  TGI: 29.1 µM
[17]
  TGI: 14.6 µM

## Cc1cc(C)nc(NS(=O)(=O)c2ccc(Nc3nncc(=O)n3N)cc2)n1
[1]
  TGI: 42.4 µM
[2]
  TGI: > 100 µM
[3]
  TGI: 80.7 µM
[18]
  TGI: 40.2 µM
[4]
  TGI: 43.9 µM
[6]
  TGI: 48.6 µM
[7]
  TGI: > 100 µM
[8]
  TGI: 39.7 µM
[9]
  TGI: 32.9 µM
[10]
  TGI: 41.6 µM
[11]
  TGI: 27.7 µM
[12]
  TGI: > 100 µM
[13]
  TGI: 29.8 µM
[19]
  TGI: 32.2 µM
[14]
  TGI: > 100 µM
[15]
  TGI: 29.5 µM
[16]
  TGI: 29.2 µM

## O=C1CCCCC/C1=C\c1ccc(F)cc1
[1]
  TGI: > 100 µM
[2]
  TGI: > 100 µM
[3]
  TGI: > 100 µM
[4]
  TGI: > 100 µM
[5]
  TGI: > 100 µM
[6]
  TGI: > 100 µM
[7]
  TGI: > 100 µM
[8]
  TGI: > 100 µM
[9]
  TGI: > 100 µM
[10]
  TGI: > 100 µM
[11]
  TGI: > 100 µM
[12]
  TGI: > 100 µM
[13]
  TGI: > 100 µM
[19]
  TGI: > 100 µM
[15]
  TGI: > 100 µM

## Cc1ccc2c(c1)C(=O)/C(=C\c1ccccc1)CCS2(=O)=O
[1]
  TGI: > 24.7 µM
[2]
  TGI: 42 µM
[3]
  TGI: 28.6 µM
[4]
  TGI: 31.6 µM
[5]
  TGI: > 58 µM
[6]
  TGI: 87.5 µM
[7]
  TGI: > 85.1 µM
[8]
  TGI: > 68.7 µM
[9]
  TGI: 46.5 µM
[10]
  TGI: 36.5 µM
[11]
  TGI: 44.3 µM
[12]
  TGI: 60.8 µM
[13]
  TGI: 39.9 µM
[19]
  TGI: 24.1 µM
[14]
  TGI: 29.9 µM
[15]
  TGI: 49.9 µM
[16]
  TGI: 62.6 µM

## COc1cc2cc(C(=O)N3CC(CCl)c4c3cc([N+](=O)[O-])c3ccccc43)[nH]c2c(OC)c1OC (centres undefined)
[1]
  TGI: 19.1 µM
[2]
  TGI: > 100 µM
[3]
  TGI: > 100 µM
[4]
  TGI: > 100 µM
[5]
  TGI: > 100 µM
[6]
  TGI: > 100 µM
[7]
  TGI: > 100 µM
[8]
  TGI: > 100 µM
[9]
  TGI: > 100 µM
[10]
  TGI: > 100 µM
[11]
  TGI: > 100 µM
[12]
  TGI: > 100 µM
[13]
  TGI: > 100 µM
[19]
  TGI: > 100 µM
[14]
  TGI: > 100 µM
[15]
  TGI: > 100 µM
[16]
  TGI: > 100 µM
[17]
  TGI: > 100 µM

## Cc1ccc(/C(O)=C/c2nc3ccccc3oc2=O)cc1
[1]
  TGI: > 100 µM
[2]
  TGI: > 100 µM
[3]
  TGI: > 100 µM
[4]
  TGI: > 100 µM
[5]
  TGI: > 100 µM
[6]
  TGI: > 100 µM
[7]
  TGI: > 100 µM
[8]
  TGI: > 100 µM
[9]
  TGI: > 100 µM
[10]
  TGI: > 100 µM
[13]
  TGI: > 100 µM
[19]
  TGI: > 100 µM
[14]
  TGI: > 100 µM
[15]
  TGI: > 100 µM
[16]
  TGI: > 100 µM
[17]
  TGI: > 100 µM

## Cc1ccc(S(=O)(=O)N2CC3OC(C)(C)OC3C2CO)cc1 (centres undefined)
[1]
  TGI: > 100 µM
[2]
  TGI: > 100 µM
[3]
  TGI: > 100 µM
[4]
  TGI: > 100 µM
[5]
  TGI: > 100 µM
[6]
  TGI: > 100 µM
[7]
  TGI: > 100 µM
[8]
  TGI: > 100 µM
[9]
  TGI: > 100 µM
[10]
  TGI: > 100 µM
[12]
  TGI: > 100 µM
[13]
  TGI: > 100 µM
[19]
  TGI: > 100 µM
[14]
  TGI: > 100 µM
[15]
  TGI: > 100 µM
[16]
  TGI: > 100 µM
[17]
  TGI: > 100 µM

## COc1ccc(CN2C[C@H]3[C@@H](CC(=O)O[C@H]3C)CC2=O)cc1
[1]
  TGI: > 100 µM
[2]
  TGI: > 100 µM
[3]
  TGI: > 100 µM
[4]
  TGI: > 100 µM
[5]
  TGI: > 100 µM
[6]
  TGI: > 100 µM
[7]
  TGI: > 100 µM
[8]
  TGI: > 100 µM
[9]
  TGI: > 100 µM
[10]
  TGI: > 100 µM
[12]
  TGI: > 100 µM
[13]
  TGI: > 100 µM
[19]
  TGI: > 100 µM
[15]
  TGI: > 100 µM
[16]
  TGI: > 100 µM
[17]
  TGI: > 100 µM

## CC1Cc2c(Br)nc(N)nc2NC1=O (centres undefined)
[1]
  TGI: > 100 µM
[2]
  TGI: > 100 µM
[3]
  TGI: > 100 µM
[4]
  TGI: > 100 µM
[5]
  TGI: > 100 µM
[6]
  TGI: > 100 µM
[7]
  TGI: > 100 µM
[8]
  TGI: > 100 µM
[9]
  TGI: > 100 µM
[10]
  TGI: > 100 µM
[11]
  TGI: > 100 µM
[12]
  TGI: > 100 µM
[13]
  TGI: > 100 µM
[19]
  TGI: > 100 µM
[14]
  TGI: > 100 µM
[15]
  TGI: > 100 µM
[16]
  TGI: > 100 µM

## COc1ccccc1C1SCC(=O)N1c1ccc(-n2c(-c3ccccc3)nc3ccccc3c2=O)cc1 (centres undefined)
[1]
  TGI: > 100 µM
[2]
  TGI: > 100 µM
[3]
  TGI: > 100 µM
[4]
  TGI: > 100 µM
[5]
  TGI: 43.1 µM
[6]
  TGI: > 100 µM
[7]
  TGI: > 100 µM
[8]
  TGI: > 100 µM
[9]
  TGI: 56.7 µM
[10]
  TGI: > 100 µM
[11]
  TGI: > 100 µM
[12]
  TGI: > 100 µM
[13]
  TGI: > 100 µM
[19]
  TGI: > 100 µM
[14]
  TGI: > 100 µM
[15]
  TGI: > 100 µM
[16]
  TGI: > 100 µM
